# Measurements from publication PMC12432127, “Assessing the potential of bacterial signal peptides for radiopharmaceutical applications” (Scientific Reports, 2025).
# Where “and” joins values, the source holds several entries; their conditions need not be identical. Equal values may be shown once. Residues, ends and D or L forms follow the SMILES beside them. *: point of attachment. For = O=C*
# Tests used:
# [1] = target: T1, human FPR2 (Homo sapiens, UniProt P25090); assay: High-throughput calcium imaging (FLIPR), FPR2 transfected HEK293T cells; format: cell-based; settings: read-out: EC50 Ca2+ mobilization
# T1 construct: expressed in transfected cells; host or cells: HEK293T (transient, jetPEI)
# T1 sequence (P25090 1-351): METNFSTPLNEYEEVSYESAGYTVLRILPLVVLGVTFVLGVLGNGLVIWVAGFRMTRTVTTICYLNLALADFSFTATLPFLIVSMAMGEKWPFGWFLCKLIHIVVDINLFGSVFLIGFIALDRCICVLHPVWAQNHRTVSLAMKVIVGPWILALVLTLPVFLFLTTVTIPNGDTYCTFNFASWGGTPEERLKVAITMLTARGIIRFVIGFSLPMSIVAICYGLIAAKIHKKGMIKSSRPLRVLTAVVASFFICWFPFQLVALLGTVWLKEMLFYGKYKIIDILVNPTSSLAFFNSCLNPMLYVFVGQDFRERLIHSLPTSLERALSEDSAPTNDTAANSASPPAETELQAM
# Experimental: (§1) Cell transfection was performed approximately 24 h after seeding the cells, when they reached about 70% confluence. Transfection was carried out using jetPEI™ (Polyplus) according to the following protocol: 0.25 µg DNA was diluted in 10 µL NaCl (150 mM). 0.5 µL of jetPEI™ solution in 10 µL NaCl was mixed with the DNA solution and incubated at RT for 15–30 min. After incubation, 20 µL of the jetPEI™/DNA mixture was added dropwise to the cells, which were then placed in the cell culture incubator at 37 °C and 5% CO2. After 18 to 24 h of transfection, the medium was replaced, and 100 µL per well was added, then placed back in the incubator.
# (§2) Automated high-throughput Ca^2+ measurements using a fluorescence imaging plate reader (FLIPR, Molecular Devices) were performed. […] After 2 h of loading with the fluorescent dye, the solution was removed, the plate was washed three times using an ELX50 washer (BioTek), and the intracellular release of calcium was measured using FLIPR. […]
# (§3) The results are expressed as the means ± standard deviations of the number of the indicated determinations. […] Response amplitudes (F/F0) were calculated by dividing maximal fluorescence change after ligand application by baseline fluorescence. Maximal amplitudes were set to 100%, and curves were calculated with Graph Pad Prism Version 10.1 (GraphPad Software, Boston, MA, USA). […]
# [2] = target: T2, FPR1 (Homo sapiens, UniProt P21462); assay: High-throughput calcium imaging (FLIPR), FPR1 transfected HEK293T cells; format: cell-based; settings: for Calicum signal (dF/F0): FPR1-HEK
# T2 construct: expressed in transfected cells; host or cells: HEK293T (transient, jetPEI)
# T2 sequence (P21462 1-350): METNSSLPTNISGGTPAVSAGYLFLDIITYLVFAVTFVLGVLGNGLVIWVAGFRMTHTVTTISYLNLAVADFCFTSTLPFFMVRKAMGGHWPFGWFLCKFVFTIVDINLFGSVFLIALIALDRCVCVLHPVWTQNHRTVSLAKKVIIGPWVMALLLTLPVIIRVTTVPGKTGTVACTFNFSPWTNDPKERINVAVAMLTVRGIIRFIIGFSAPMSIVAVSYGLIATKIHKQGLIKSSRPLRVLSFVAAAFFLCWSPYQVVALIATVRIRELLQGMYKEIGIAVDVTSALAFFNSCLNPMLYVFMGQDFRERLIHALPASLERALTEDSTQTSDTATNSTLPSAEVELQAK
# Experimental: as §1
# (§4) Automated high-throughput Ca^2+ measurements using a fluorescence imaging plate reader (FLIPR, Molecular Devices) were performed. Briefly, […] were seeded in 96-well plates (~ 50,000 cells/well) one day before the experiments and incubated at 37 °C. HEK293T cells were co-transfected with the receptor or mock and the G protein Gα16 for 48 h. On the day of the experiments, the medium was removed, and the cells were loaded with a loading solution consisting of 2 µM Calbryte dye in C1 buffer (Calbryte 520AM, AAT Bioquest 20651) 50 µL per well, for at least 2 h at RT in the dark. After 2 h of loading with the fluorescent dye, the solution was removed, the plate was washed three times using an ELX50 washer (BioTek), and the intracellular release of calcium was measured using FLIPR. A Ca^2+ response was defined as an increase in the excitation ratio (340 nm/380 nm) that was at least four times higher than the mean baseline noise after bath application.
# (§5) The results are expressed as the means ± standard deviations of the number of the indicated determinations. Calcium measurement experiments were routinely performed as triplicates and averaged over at least three independent transfections. Response amplitudes (F/F0) were calculated by dividing maximal fluorescence change after ligand application by baseline fluorescence. Maximal amplitudes were set to 100%, and curves were calculated with Graph Pad Prism Version 10.1 (GraphPad Software, Boston, MA, USA). S.D. values were calculated as averages from independently obtained EC50 values using the STDEV. Data derived from experiments were analyzed by two-way ANOVA. P < 0.05 was accepted as significant.
# [3] = target: T3, human FPR3 (Homo sapiens, UniProt P25089); assay: High-throughput calcium imaging (FLIPR), FPR3 transfected HEK293T cells; format: cell-based; settings: up to 10 µM
# T3 construct: expressed in transfected cells; host or cells: HEK293T (transient, jetPEI)
# T3 sequence (P25089 1-353): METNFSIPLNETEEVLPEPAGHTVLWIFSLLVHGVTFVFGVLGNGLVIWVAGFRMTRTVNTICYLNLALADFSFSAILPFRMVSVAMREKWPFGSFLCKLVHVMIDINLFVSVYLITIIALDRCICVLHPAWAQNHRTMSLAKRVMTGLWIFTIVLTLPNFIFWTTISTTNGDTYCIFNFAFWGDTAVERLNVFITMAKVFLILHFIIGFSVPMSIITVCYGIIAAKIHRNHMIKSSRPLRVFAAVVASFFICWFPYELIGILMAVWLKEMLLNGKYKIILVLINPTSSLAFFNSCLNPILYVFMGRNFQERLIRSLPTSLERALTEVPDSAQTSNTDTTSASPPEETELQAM
# Experimental: as §1, §2, §3
# [4] = test system: U87-MG cells; assay: Calcium imaging (FLIPR) in U87-MG cells; format: cell-based, human; settings: for Calicum signal (dF/F0): U87 cells
# Experimental: as §4, §5
# [5] = Log Concentration (M) -6,5, single replicate values
# [6] = Log Concentration (M) -6, single replicate values
# [7] = Log Concentration (M) -7,5, single replicate values
# [8] = Log Concentration (M) -7, single replicate values
# [9] = Log Concentration (M) -8,5, single replicate values
# [10] = Log Concentration (M) -8, single replicate values
# [11] = Log Concentration (M) -9, single replicate values
compound,measurement,setting,value
CC[C@H](C)[C@H](NC(=O)[C@H](CCCCN)NC(=O)[C@@H](NC(=O)[C@@H]1CCCN1C(=O)[C@@H](NC(=O)[C@H](CCSC)NC=O)C(C)C)[C@@H](C)CC)C(=O)O [f-MVPIKI] (For-MVPIKI-OH; C-terminus assumed),EC50,[1],60 ± 0.76 nM
same,Calicum signal (dF/F0),[2]; [5],"0,85 (2×) and 0,92"
same,Calicum signal (dF/F0),[2]; [6],"0,75 and 0,94 and 0,85"
same,Calicum signal (dF/F0),[2]; [7],"0,71 and 0,77 and 0,68"
same,Calicum signal (dF/F0),[2]; [8],"0,57 and 0,86 and 0,73"
same,Calicum signal (dF/F0),[2]; [9],"0,27 and 0,32 and 0,34"
same,Calicum signal (dF/F0),[2]; [10],"0,65 and 0,63 and 0,6"
same,Calicum signal (dF/F0),[2]; [11],"0,18 and 0,24 and 0,22"
same,EC50,"[2]; FPR1 transfected HEK293T cells, peak calcium response, read-out: EC50 Ca2+ mobilization",4.3 ± 2.4 nM
same,preference for FPR1 over FPR2 (calcium EC50),[2]; FPR1 vs FPR2,approximately 14 fold
same,activation of FPR3 (calcium),[3],did not activate FPR3 at any tested concentration
same,EC50,"[4]; U87-MG cells, read-out: EC50 Ca2+ flux",5.3 ± 2.4 nM
same,Calicum signal (dF/F0),[4]; [5],"1,19 (2×) and 0,99 and 1,7 and 1,4"
same,Calicum signal (dF/F0),[4]; [6],"1,22 and 1,13 and 1,2 and 1,14 and 1,1"
same,Calicum signal (dF/F0),[4]; [7],"1 and 0,95 and 0,98 and 1,12 and 1,1"
same,Calicum signal (dF/F0),[4]; [8],"1 and 1,1 and 1,2 and 1,18 and 0,99"
same,Calicum signal (dF/F0),[4]; [9],"0,66 (2×) and 0,69 and 0,6 and 0,47"
same,Calicum signal (dF/F0),[4]; [10],"0,9 and 0,98 and 0,94 and 1,3 and 1,07"
same,Calicum signal (dF/F0),"[4]; Log Concentration (M) -9,5, single replicate values","0,01 and 0,08 and 0,09 and 0,1 and 0,3"
same,Calicum signal (dF/F0),[4]; [11],"0,14 and 0,23 and 0,2 and 0,12 and 0,38"
